In US10041935B2, “Identification of olfactory receptors sensitive to different odorants” (New York University, priority 2013, dated 2018):

Key:
[1] = tested on: cultured rat hippocampal neurons; test: Photoconversion with field electrode stimulation in neurons expressing CaMPARI; type: cell-based; conditions: 83 Hz action potentials at the beginning of a 2 s photoconversion pulse
Protocol: First, cultured rat hippocampal neurons were prepared and infected with lentivirus expressing CaMPARI from the human synapsin promoter. The neurons were imaged ten days after infection with a 10× objective before and after various combinations of photoconversion and field electrode-induced action potential firing. Prior to imaging, the neuron cultures were washed with imaging buffer and spontaneous activity was blocked with a drug mix.
Following a 2 s pulse of photoconversion light (1.5 W/cm^2) to CaMPARI-expressing neurons, there was no significant decrease in green fluorescence and a small amount of red fluorescence was visible (FIG. 13A). […] Repeated exposures of CaMPARI-expressing neurons to shorter photoconversion light pulses (0.5 s) led to increasing amounts of red fluorescence signal (FIG. 16A) and red/green ratio (two left bars in FIG. 16B), but the ratio of red-to-green photoconversion between 80 Hz field stimulated and unstimulated neurons remained approximately constant (right-most bars in FIG. 16B). Field electrode stimulation of CaMPARI-expressing neurons (without application of photoconversion light) led to transient decreases in the green fluorescence signal, proportional to the number of induced action potentials (FIG. 17).

[2] = Photoconversion rate difference +/- calcium of purified CaMPARI (400 nm LED array); conditions: purified protein, 5 mM CaCl2 vs 5 mM EGTA
Protocol: (§1) This Example describes procedures performed to characterize the in vitro properties of the fluorescent proteins. First, CaMPARI protein was expressed from the pRSET plasmid (Life Technologies, Carlsbad, Calif.) in T7 Express E. coli cells cultured for 36 h in 100 mL of autoinduction medium supplemented with 100 mg/L ampicillin. Cell pellets were lysed using B-PER (Pierce, Rockford, Ill.) supplemented with 1 mg/mL lysozyme and 1 min. of sonication. After removing insoluble material by centrifugation, CaMPARI protein was purified by immobilized metal affinity chromatograpy on nickel-charged Profinity resin (Bio-Rad, Hercules, Calif.), washing with 10 mM imidazole and eluting with 100 mM imidazole.
(§2) Using these samples, calcium titrations were used to calculate an apparent affinity of the protein for calcium ions. Aliquots of purified CaMPARI protein were mixed with Ca-EGTA solutions calculated to contain a range of free Ca^2+ ions (Life Technologies) and fluorescence was measured in a plate reader. Furthermore, to observe the photoconversion rate difference+/−calcium, purified CaMPARI in 5 mM CaCl2 or 5 mM EGTA were photoconverted using a 400 nm LED array and green and red fluorescence was measured at various time points to fit an exponential rate to the appearance of red fluorescence or the disappearance of green fluorescence.

[3] = Fluorescence of purified CaMPARI green and red forms +/- calcium; conditions: purified protein
Protocol: as §1, §2

[4] = Calcium titration of CaMPARI M13-domain variants, sigmoidal fit; type: binding; conditions: dissociation constant for calcium, sigmoidal fit to calcium titration data
Protocol: (§3) Other CaMPARI variants were constructed and there include V398L, W391F+V398L, W391F, W391L, V398T, G395D, W391Y, W391Y+V398T, V398D, W391F+G395D, W391F+V398H. The variants were made based on substitutions within the M13 domain of CaMPARI that alter the affinity, cooperativity and kinetics and calcium binding. The magnitude of fluorescence change was similar for all variants. Dissociation constants for calcium (Kd) and Hill coefficients were determined from a sigmoidal fit to calcium titration data. Kinetics of fluorescence decay upon calcium release were determined by rapid mixing with EGTA in a stopped-flow device.

[5] = Kinetics of fluorescence decay upon calcium release, rapid mixing with EGTA in stopped-flow device; type: binding
Protocol: as §3

[6] = Calcium titration of purified CaMPARI protein, fluorescence in plate reader; type: binding
Protocol: as §1, §2

CaMPARI v1: isolated polypeptide comprising CaM, EosFP, and M13, SEQ ID NO: 1; Calcium-Modulated Photoactivatable Ratiometric Integrator
more green-to-red photoconversion for 160 action potentials relative to 0 [1]: up to 12 fold
faster green-to-red photoconversion rate in the presence of calcium [2]: 29 fold
green form less fluorescent in the presence of calcium ([3]; green form): 8 fold
red form less fluorescent in the presence of calcium ([3]; red form): 34 fold
Kd [4]: 0.111 µM
koff [5]: 0.25 s⁻¹
Kd ([6]; purified protein, without N-terminal NES, estimated from fluorescence change with increasing calcium, read-out: dissociation constant (Kd)): 0.13 µM
Kd ([6]; with nuclear export signal (NES) added to the N-terminus, read-out: Kd): 0.106 µM
